Like-named read-outs stand apart in the source and are kept apart here.
Experiments:
DCAF1(WDR) = biological target: T1, DCAF1(WDR) (Homo sapiens, UniProt Q9Y4B6, E1398S); assay: SPR, surface immobilized DCAF1(WDR), binary compound binding
T1 construct: His6 (C); made in house; host or cells: Sf9 insect cells (baculovirus), co-expressed with BirA

[1] = Viability by FSC/SSC gate (flow cytometry) in TMD8 BTK-GFP/mCh cells; assay type: cell-based, human; settings: human, TMD8 BTK-GFP/mCh cells, TMD8 BTK-GFP/mCh, 24 h
Experimental: For flow cytometry measurements, 25,000 exponentially growing TMD8 BTK-GFP/mCh cells were plated in 100 μL of each well of a 96-well plate and grown for 24 h. Cells were then dosed with corresponding compounds and doses from 10 mM DMSO stock for 24 h, after which GFP and mCherry fluorescence was read with a Beckmann Coulter Cytoflex. For competition experiment, both compounds were added at the same time and dosed for 24 h. Cells were gated based on Forward & Side Scatter and selection for Single cells using SSC-A vs. SSC-H. Further, the population of viable cells was defined by the forward & side-scatter characteristics of DMSO-treated cells. […] Effects on viability were measured by the reduction of the percentage of cells included in this viable-population gate with increasing doses of compound tested. Degradation of BTK was calculated based on subtracting background (BG) fluorescence of parental TMD8 signal via (GFP-BG)/(mCherry-BG) of viable cells. Median ratios of three technical (different wells) replicates were used to calculate daily averages. Each compound dose–response was generated via three biological replicates (different days of experiment). Degradation curve parameters (DC50 & Abs. DC50 & max. Deg) were extracted using GraphPad Prism’s 4-parameter logistic curve fitting.
The viability window was determined by measuring the GI50 of viability based on the percentage of cells included in the viable gate and comparing it to the DC50 of degradation. The fold-change difference describing this window is [GI50 Viability / DC50 Degradation], where values above 1 indicate a positive (lower DC50 degradation than AC50 viability) window.

BTK [2] = biological target: T2, BTK (Homo sapiens, UniProt Q06187); assay: BTK-GFP degradation by flow cytometry in TMD8 BTK-GFP/mCh cells; assay type: cell-based; set-up: performed with full-length BTK and endogenous DCAF1; expressed in transfected cells; host or cells: TMD8 cells, lentiviral, blasticidin-selected (TMD8 BTK-GFP/mCh); settings: for DC50 / max. BTK degradation (%): 24 h
Experimental: The bicistronic pLenti6 BTK-GFP-chysel-mCHERRY expression vector was cloned as described[92] using Gateway cloning with a pENTR-BTK plasmid lacking a STOP codon. TMD8 cells were then infected with lentiviral particles from this vector as described above and stably transfected cells were selected with blasticidin at a concentration of 10 μg/mL referred to as TMD8 BTK-GFP/mCh cells.
For flow cytometry measurements, 25,000 exponentially growing TMD8 BTK-GFP/mCh cells were plated in 100 μL of each well of a 96-well plate and grown for 24 h. Cells were then dosed with corresponding compounds and doses from 10 mM DMSO stock for 24 h, after which GFP and mCherry fluorescence was read with a Beckmann Coulter Cytoflex. For competition experiment, both compounds were added at the same time and dosed for 24 h. Cells were gated based on Forward & Side Scatter and selection for Single cells using SSC-A vs. SSC-H. Further, the population of viable cells was defined by the forward & side-scatter characteristics of DMSO-treated cells. To confirm cells outside of this population as non-viable, cells were plated and treated for 24 h, washed with PBS and stained for 30 min with two markers of early (Annexin-V) and late (LIVE/DEAD) apoptosis. Effects on viability were measured by the reduction of the percentage of cells included in this viable-population gate with increasing doses of compound tested. Degradation of BTK was calculated based on subtracting background (BG) fluorescence of parental TMD8 signal via (GFP-BG)/(mCherry-BG) of viable cells. Median ratios of three technical (different wells) replicates were used to calculate daily averages. Each compound dose–response was generated via three biological replicates (different days of experiment). Degradation curve parameters (DC50 & Abs. DC50 & max. Deg) were extracted using GraphPad Prism’s 4-parameter logistic curve fitting.

BTK [3] = biological target: T2, BTK; assay: Immunoblot of endogenous BTK in TMD8 cells; assay type: cell-based; set-up: performed with full-length BTK and endogenous DCAF1; expressed in transfected cells; host or cells: TMD8 cells, lentiviral, blasticidin-selected (TMD8 BTK-GFP/mCh)
Experimental: Whole cell lysates for immunoblotting were prepared by pelleting cells at 4 °C (300 g) for 3 min. Cell pellets were then washed 1x with PBS and resuspended in RIPA lysis buffer (VWR, cat # 97063-270) supplemented with protease (Thermo Scientific, cat # A32955) and phosphatase (Thermo Scientific, cat # A32957) inhibitor tablets. Lysates were clarified at 16,000 × g for 15 min at 4 °C prior to quantification by Lowry assay (Bio-Rad cat # 5000113 and cat # 5000114). Whole-cell lysates were loaded into 4–20% Criterion TGX Precast 18 well gels (Bio-Rad, cat # 5671094) and separated by electrophoreses at 120 V for 1 h. The gels were transferred to a nitrocellulose membrane using the Trans-Blot Turbo (Bio-Rad) for 7 min and then blocked for 1 h at room temperature in Odyssey blocking buffer (LICOR Biosciences, cat # 927-50000). Membranes were probed with the appropriate primary antibodies (diluted 1:1000) overnight at 4 °C in 20% Odyssey blocking buffer in 1x TBST. Membranes were washed three times with 1x TBST (5 min per wash), and then incubated with IRDye goat anti-mouse (LICOR, cat # 926-32210) or goat anti-rabbit (LICOR, cat # 926-32211) secondary antibody diluted 1:10,000 in 20% Odyssey blocking buffer for 1 h at room temperature. After three 5-min washes with 1x TBST, the immunoblots were visualized using the ODYSSEY Infrared Imaging System (LICOR). Alternatively, SDS-PAGE resolved proteins were transferred to a PVDF membrane using a wet blotting system (Invitrogen). Membranes were blocked in 5% Milk-PBS-Tween 20 for 1 h and incubated with primary antibody over night at 4 °C. Secondary antibodies (secondary antibody: anti-rabbit, goat pAb to Rb-IgG (Abcam, #7090); secondary antibody: anti-mouse, sheep IgG HRP-linked (GE healthcare, #NA931V)) were incubated for 1 h at room temperature (RT) before blots were developed on film using the detection kit SuperSignal West Femto Maximum Sensitivity Substrate (Thermo Fisher, #34096).

[4] = Fig. 6b, SPR, read-out: KD DCAF1
[5] = Fig. 6b, read-out: DC50 BTK degradation (24h)
[6] = TMD8 BTK-GFP/mCh, read-out: Absolute DC50 BTK-Degradation
[7] = TMD8 BTK-GFP/mCh, read-out: DC50 BTK-Degradation

T2 sequence (Q06187 2-659 limits assumed): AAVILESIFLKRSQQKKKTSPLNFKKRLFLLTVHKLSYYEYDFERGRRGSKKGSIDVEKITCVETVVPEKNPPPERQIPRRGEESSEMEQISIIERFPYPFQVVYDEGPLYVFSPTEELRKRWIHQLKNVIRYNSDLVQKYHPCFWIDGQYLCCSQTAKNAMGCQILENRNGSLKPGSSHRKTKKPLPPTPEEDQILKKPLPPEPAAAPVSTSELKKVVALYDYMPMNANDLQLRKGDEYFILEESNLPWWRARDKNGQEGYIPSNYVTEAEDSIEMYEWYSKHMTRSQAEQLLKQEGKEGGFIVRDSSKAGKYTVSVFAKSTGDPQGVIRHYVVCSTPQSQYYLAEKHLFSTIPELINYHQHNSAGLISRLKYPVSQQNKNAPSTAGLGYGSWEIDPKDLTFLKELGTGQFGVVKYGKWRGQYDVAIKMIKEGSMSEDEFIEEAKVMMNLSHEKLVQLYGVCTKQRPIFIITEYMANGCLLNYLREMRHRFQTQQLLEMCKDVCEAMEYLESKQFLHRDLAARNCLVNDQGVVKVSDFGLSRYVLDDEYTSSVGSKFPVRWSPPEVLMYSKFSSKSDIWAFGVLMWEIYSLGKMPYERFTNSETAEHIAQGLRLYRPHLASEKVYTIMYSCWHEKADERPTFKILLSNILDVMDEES
T1 sequence (Q9Y4B6 1073-1399 E1398S): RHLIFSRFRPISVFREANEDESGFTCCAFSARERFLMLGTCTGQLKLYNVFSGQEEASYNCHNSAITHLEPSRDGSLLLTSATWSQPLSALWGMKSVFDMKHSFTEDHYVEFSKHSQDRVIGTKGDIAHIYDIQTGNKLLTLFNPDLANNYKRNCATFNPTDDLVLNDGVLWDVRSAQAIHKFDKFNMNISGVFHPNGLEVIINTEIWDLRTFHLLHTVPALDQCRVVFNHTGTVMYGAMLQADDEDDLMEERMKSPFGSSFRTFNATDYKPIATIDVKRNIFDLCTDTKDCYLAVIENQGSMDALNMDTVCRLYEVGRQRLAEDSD

COc1cc(-c2cn(C)c(=O)c3cnccc23)c(OC)cc1CN1CCC(OCCCCCC(=O)N2CCN(c3ccc4c(NCCN)nc(C5(c6ccc(Cl)cc6)CCCCC5)nc4c3)CC2)CC1 [DBr-1]
Kd (DCAF1(WDR); binary, compound alone, spread in brackets, read-out: SPR KD): 13 nM

Cc1c(NC(=O)c2ccc(C(C)(C)O)cc2F)cc(F)cc1-c1ncnc2[nH]c(-c3ccc(CNCCOCCOCCOCCOCCOCCOCCOCCOCCOCCOCCOCCOCCC(=O)N4CCN(c5ccc6c(NCCN)nc(C7(c8ccc(Cl)cc8)CCCCC7)nc6c5)CC4)cc3)cc12 [DBt-5]
Kd (DCAF1(WDR); [4]): 90 nM | GI50 at 24 h ([1]; read-out: Abs GI50): 4120 nM | GI50 at 24 h ([1]; read-out: GI50): 4240 nM | max. BTK degradation (24h, %) (BTK [2]; Fig. 6b): 100% | DC50 (BTK [2]; [5]): 50 nM | max. BTK degradation (%) (BTK [2]; TMD8 BTK-GFP/mCh): 100% | DC50 (BTK [2]; [6]): 50 nM | DC50 (BTK [2]; [7]): 50 nM

Cc1c(NC(=O)N2CC(O)(CC(C)(C)C)C2)cc(F)cc1-c1ncnc2[nH]c(-c3cnn(CC(=O)N4CCC5(CC4)CN(CCNC(=O)CCCC(=O)N4CCN(c6ccc7c(NCCN)nc(C8(c9ccc(Cl)cc9)CCCCC8)nc7c6)CC4)CCO5)c3)cc12 [DBt-10]
Kd (DCAF1(WDR); [4]): 147 nM | GI50 at 24 h ([1]; read-out: GI50): > 25000 nM | max. BTK degradation (24h, %) (BTK [2]; Fig. 6b): 94% | DC50 (BTK [2]; [5]): 137 nM | max. BTK degradation (%) (BTK [2]; TMD8 BTK-GFP/mCh): 94% | DC50 (BTK [2]; [6]): 149 nM | DC50 (BTK [2]; [7]): 137 nM | concentration giving significant reduction of BTK (BTK [3]; TMD8, 6 h dose-response, immunoblot): 2.5 µM

Cc1nc(Nc2ncc(C(=O)Nc3c(C)cccc3Cl)s2)cc(N2CCC(OC3CCN(CCCCCCCC(=O)N4CCN(c5ccc6c(NCCN)nc(C7(c8ccc(Cl)cc8)CCCCC7)nc6c5)CC4)CC3)CC2)n1 [DDa-1]
GI50 at 24 h ([1]; read-out: Abs GI50): 1200 nM | GI50 at 24 h ([1]; read-out: GI50 viability): 1200 nM | DC50 (BTK [2]; [6]): 146 nM | DC50 (BTK [2]; [7]): 91.3 nM | DC50 (BTK [2]; TMD8 BTK-GFP/mCh, read-out: DC50 BTK-GFP degradation): 90 nM | BTK degradation potency (BTK [3]; TMD8, 24 h, immunoblot): sub-µM potency

CC(=O)N1CCN(c2ccc3c(NCCN)nc(C4(c5ccc(Cl)cc5)CCCCC4)nc3c2)CC1 [compound 13]
GI50 at 24 h ([1]; read-out: Abs GI50): 5220 nM | GI50 at 24 h ([1]; read-out: GI50): 5040 nM | max. BTK degradation (%) (BTK [2]; TMD8 BTK-GFP/mCh): 0% | DC50 (BTK [2]; [7]): > 25000 nM | BTK reduction by control treatment (BTK [3]; TMD8, 1 µM, 1, 3, 6 and 24 h): did not reduce BTK at any time points
